A short description of this data set: In vitro genotoxicity assays. The source says:
Compounds disclosed herein can be evaluated for efficacy and toxicity using known methods. For example, the toxicology of a particular compound, or of a subset of the compounds, sharing certain chemical moieties, may be established by determining in vitro toxicity towards a cell line, such as a bacterial or mammalian, including human, cell line. The results of such studies are often predictive of toxicity in animals, such as mammals, or more specifically, humans. Exemplary assays include bacterial reverse mutation assays (e.g., see Ames et al., Mutation Research 31: 347-364 (1975); Green et al., Mutation Research 38: 3-32 (1976); and Maron et al., Mutation Research 113: 173-215 (1983), cytological methods for detecting chemical mutagens (Evans, Chemical Mutagens, Principles and Methods for their Detection, Vol. 4 (Plenum Press, New York, N.Y. (1976))), chromosomal aberration assays (Galloway et al., Mutation Research 312(3): 241-261 (1994)), genotoxicity assays (Federal Register 61: 18198-18202 (1996) and Federal Register 62: 16026-16030 (1997)) and cytogenetic assays (Preston et al., Mutation Research 87: 143-188 (1981)).

This passage reports genotoxicity results from patent US11358931B2, “Selective androgen receptor modulators (SARMs) and uses thereof” (priority 2007, dated 2022).

On to `N#Cc1ccc(N2CCC[C@@H]2[C@@H](O)C(F)(F)F)cc1C(F)(F)F` [Compound 102, R,R-4-(2-(1-Hydroxyl-2,2,2-trifluoroethyl)-pyrrolidinyl)-2-trifluoromethyl-benzonitrile], for which the genotoxicity result was “negative”.
